Reference: US6472413B2, “Heteroarylacryloylaminoalkyl-substituted benzenesulfonamide derivatives, their preparation, their use and pharmaceutical preparations comprising them” (Adventis Pharma Deutschland GmbH, priority 2000, dated 2002)

Assays:
[1] = tested on: papillary muscle of the guinea pig; assay: Action potential duration on the papillary muscle of the guinea pig (relengthening of hypoxia-shortened APD90); format: cell-based; settings: concentration 2 μM, 60 min after addition, percentage in relation to the shortening caused by hypoxia
Source text: Action Potential Duration on the Papillary Muscle of the Guinea Pig
ATP deficiency states, observed during ischemia in the cardiac muscle cell, lead to a shortening of the action potential duration (ATP=adenosine triphosphate). They are regarded as one of the causes of so-called reentry arrhythmias, which can cause sudden cardiac death. The opening of ATP-sensitive potassium channels by the lowering of the ATP level is regarded as the cause of this. For the measurement of the action potential on the papillary muscle of the guinea pig a standard microelectrode technique was employed.
Guinea pigs of both sexes were killed by a blow to the head, the hearts were removed, and the papillary muscles were separated out and suspended in an organ bath. The organ bath was rinsed with Ringer's solution (136 mmol/l of NaCl, 3.3 mmol/l of KCl, 2.5 mmol/l of CaCl2, 1.2 mmol/l of KH2PO4, 1.1 mmol/l of MgSO4, 5.0 mmol/l of glucose, 10.0 mmol/l of 1-(2-hydroxyethyl)piperazine-4-(2-ethanesulfonic acid) (HEPES), pH adjusted to 7.4 with NaOH) and aerated with 100% oxygen at a temperature of 37° C. The muscle was stimulated with square-wave pulses of 1 V and 1 ms duration and a frequency of 1 Hz by means of an electrode. The action potential was derived and recorded by means of a glass microelectrode inserted intracellularly, which was filled with 3 mol/l of KCl solution. The compound to be tested was added to the Ringer's solution in a concentration of 2 μmol/l. The action potential was amplified using an amplifier from Hugo Sachs (March-Hugstetten, Germany) and stored and analyzed by means of a computer. The duration of the action potential was determined at a degree of repolarization of 90% (APD90). After an equilibration time of 30 min, the action potential shortening was produced by rinsing the papillary muscle with a hypoxic NaCl solution. The glucose was removed here, the HEPES buffer replaced by PIPES buffer (piperazine-1,4-bis(2-ethanesulfonic acid)), the pH was adjusted to 6.5, and the aeration was carried out using 100% nitrogen. After a time of 60 min, this led to a marked shortening of the APD90. After this time, the test compound was added and the relengthening of the action potential recorded after a further 60 min. The compound-caused relengthening of the APD90 was calculated as a percentage, in relation to the shortening caused by hypoxia. The test compounds were added to the bath solution as stock solution in propanediol.
The following relengthenings of the APD90 values were observed.

[2] = tested on: chloroform-induced ventricular fibrillation in the mouse; assay: Chloroform-induced ventricular fibrillation in the mouse (action in the case of vagal dysfunction); format: in vivo; settings: 3 mg/kg i.p., 30 min before chloroform anesthesia, percentage of mice with ventricular fibrillation, untreated control 100%
Source text: Chloroform-induced Ventricular Fibrillation in the Mouse (Action in the Case of Vagal Dysfunction)
Hypoactivity of the vagal nervous system leads to hyperactivity of the sympathetic nervous system. Damages to health that result from an inequilibrium of the autonomic nervous system when the dysfunction affects the heart include the weakening of the myocardial contractile force and fatal cardiac arrhythmias such as ventricular fibrillation. The action of the test compounds was investigated in the model of chloroform-induced ventricular fibrillation in the mouse (see J. W. Lawson, Antiarrhythmic activity of some isoquinoline derivatives determined by a rapid screening procedure in the mouse; J. Pharmacol. Exp. Ther. 160 (1968) 22).
The test compound was dissolved in a mixture of dimethyl sulfoxide (DMSO) and 10 percent sodium hydrogencarbonate solution and administered intraperitoneally (i.p.). The dose was 3 mg/kg. 30 min later, the mouse was anesthetized with chloroform in a beaker. As soon as respiratory arrest had occurred under deep anesthesia (toxic stage of anesthesia), the thorax of the animal was opened using a pair of scissors and the heartbeat was visually inspected. It can be determined here at a glance whether the heart is beating, fibrillating, or has stopped. The respiratory arrest induced by chloroform leads, via an absolute anoxia (oxygen deficiency) in combination with a direct stimulating action of chloroform on the sympathetic nervous system, to a strong stimulation of the sympathetic nervous system, which in turn, and in combination with the energy deficiency caused by oxygen deficiency, leads in the heart to the fatal arrhythmia, ventricular fibrillation. This toxic chloroform anesthesia led to ventricular fibrillation in 100% of the untreated mice (control). The percentage proportion of the mice with ventricular fibrillation in the individual test groups (consisting of n animals) is indicated as the fibrillation ratio.
The following fibrillation ratios were observed.

hSUR1/hKir6.2 = hSUR1/hKir6.2 (Homo sapiens, UniProt Q09428+Q14654); assay: Action on hSUR1/hKir6.2-transfected CHO cells (hypoglycemic action), membrane potential by DIBAC4 fluorescence (FLIPR); format: cell-based; settings: concentration 10 μM; CHO cells activated with diaxozide; mean of at least 4 experiments
Source text: Action on hSUR1/hKir6.2-transfected CHO Cells (Hypoglycemic Action)
The target organ of these compounds is the β cell of the pancreas where they block ATP-sensitive potassium channels and produce a release of the hypoglycemic hormone insulin by influencing the electrical potential of the cell membrane.
The extent of this depolarization of the cell membrane, which is caused by the compounds according to the invention, was investigated on CHO cells that were transfected with the cloned components of human pancreatic ATP-sensitive potassium channels, hSUR1, and hKir6.2, and activated by pretreatment with diaxozide, an opener of ATP-sensitive potassium channels. The potency of a compound with respect to the membrane potential of these transfected and activated CHO cells is a measure of the hypoglycemic potential of this compound.
On the day of measurement, the microtiter plates were washed three times with PBS (physiological buffer solution). In the last washing step, 90 μl remained in each well. The cells were then loaded with the fluorescent dye DIBAC4 (Molecular Probes, Portland, Oreg., USA) by addition of 90 μl of a 10-micromolar solution of DIBAC4 in PBS and of 90 μl of a 400 micromolar solution of diaxozide in PBS to each well. After an incubation time of 30 min at 37° C., the microtiter plates were then transferred to a fluorescent microtiter plate reader (FLIPR; Molecular Devices, Sunnyvale, Calif., USA). The cells were stimulated by means of an argon laser (Innova 90; Coherent, Santa Clara, Calif., USA) at a wavelength of 488 nm and the fluorescence emission was measured by means of a CCD camera. The measurement of the membrane potential began after 4 min by addition of 20 μl of a solution of the test compound or of the control solution to each well, the resulting fluorescence emission being measured every 20 seconds for a period of 20 min. The data shown are mean values of at least 4 experiments.

Chain of hSUR1/hKir6.2 (Q09428 whole entry): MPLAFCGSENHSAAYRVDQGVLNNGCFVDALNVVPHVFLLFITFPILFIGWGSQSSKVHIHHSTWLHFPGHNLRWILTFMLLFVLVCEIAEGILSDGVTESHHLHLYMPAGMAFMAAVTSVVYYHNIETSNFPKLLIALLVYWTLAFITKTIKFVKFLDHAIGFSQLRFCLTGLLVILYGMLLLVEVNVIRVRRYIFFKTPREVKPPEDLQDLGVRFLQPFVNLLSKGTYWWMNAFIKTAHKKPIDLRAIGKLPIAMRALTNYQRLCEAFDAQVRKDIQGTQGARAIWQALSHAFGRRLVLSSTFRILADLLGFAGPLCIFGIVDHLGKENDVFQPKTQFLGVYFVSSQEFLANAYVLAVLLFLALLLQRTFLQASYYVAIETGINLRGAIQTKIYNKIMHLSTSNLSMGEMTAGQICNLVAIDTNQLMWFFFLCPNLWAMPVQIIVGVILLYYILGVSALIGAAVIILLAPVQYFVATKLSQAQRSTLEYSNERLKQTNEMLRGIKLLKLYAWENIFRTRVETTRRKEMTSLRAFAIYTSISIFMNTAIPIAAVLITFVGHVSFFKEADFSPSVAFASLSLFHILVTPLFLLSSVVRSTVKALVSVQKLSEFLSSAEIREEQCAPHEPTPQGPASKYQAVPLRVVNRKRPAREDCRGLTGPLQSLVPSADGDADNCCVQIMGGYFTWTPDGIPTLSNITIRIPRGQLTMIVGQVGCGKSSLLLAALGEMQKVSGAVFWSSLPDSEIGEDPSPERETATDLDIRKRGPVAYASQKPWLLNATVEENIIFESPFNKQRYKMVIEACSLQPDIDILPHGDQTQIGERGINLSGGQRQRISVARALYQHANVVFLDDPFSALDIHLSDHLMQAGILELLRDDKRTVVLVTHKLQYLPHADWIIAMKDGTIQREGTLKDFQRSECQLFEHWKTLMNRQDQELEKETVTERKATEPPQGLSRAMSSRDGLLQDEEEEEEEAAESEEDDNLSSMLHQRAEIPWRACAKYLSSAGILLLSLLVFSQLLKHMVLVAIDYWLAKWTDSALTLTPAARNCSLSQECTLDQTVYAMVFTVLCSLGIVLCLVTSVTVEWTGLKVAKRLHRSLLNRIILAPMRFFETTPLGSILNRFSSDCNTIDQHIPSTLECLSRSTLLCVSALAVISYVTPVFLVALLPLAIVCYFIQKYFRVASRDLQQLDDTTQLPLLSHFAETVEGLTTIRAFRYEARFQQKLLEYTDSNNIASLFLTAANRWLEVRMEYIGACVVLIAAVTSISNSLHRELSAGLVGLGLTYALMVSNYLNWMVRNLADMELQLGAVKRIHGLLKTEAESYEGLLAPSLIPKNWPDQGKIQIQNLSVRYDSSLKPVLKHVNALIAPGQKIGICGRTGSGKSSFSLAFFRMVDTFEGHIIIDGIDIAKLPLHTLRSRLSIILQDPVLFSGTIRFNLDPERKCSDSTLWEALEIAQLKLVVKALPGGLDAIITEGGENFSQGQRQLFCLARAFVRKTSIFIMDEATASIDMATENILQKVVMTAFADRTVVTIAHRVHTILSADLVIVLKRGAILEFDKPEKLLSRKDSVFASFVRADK
Chain of hSUR1/hKir6.2 (Q14654 whole entry): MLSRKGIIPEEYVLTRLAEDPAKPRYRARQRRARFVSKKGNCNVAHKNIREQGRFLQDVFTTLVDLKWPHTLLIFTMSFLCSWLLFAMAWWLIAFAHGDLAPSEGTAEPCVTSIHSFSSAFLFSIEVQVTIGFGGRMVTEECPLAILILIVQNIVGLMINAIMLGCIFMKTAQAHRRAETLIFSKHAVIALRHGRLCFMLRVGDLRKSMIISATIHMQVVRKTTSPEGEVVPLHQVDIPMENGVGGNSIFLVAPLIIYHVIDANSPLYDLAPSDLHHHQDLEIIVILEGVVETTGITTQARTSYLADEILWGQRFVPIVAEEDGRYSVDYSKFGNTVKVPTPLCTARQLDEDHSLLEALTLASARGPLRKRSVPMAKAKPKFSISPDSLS

Row | melting point | Blockade hSUR1/hKiR6.2 (hSUR1/hKir6.2) | Structure (SMILES) | Relengthening of the APD90 shortened by hypoxia [1] | Fibrillation ratio (in %) [2]
1 | 101 °C | – | COCCOc1ccc(CCNC(=O)/C=C/c2cccs2)cc1S(=O)(=O)NC(=S)NC(C)C [Example 8, 1-[5-(2-(trans-3-(2-Thienyl)acryloylamino)ethyl)-2-(2-methoxyethoxy)phenylsulfonyl]-3-isopropyl-thiourea] | – | –
2 | – | 5.9% | COCCOc1ccc(CCNC(=O)/C=C/c2ccccn2)cc1S(=O)(=O)NC(=S)NC(C)C [Example 20, 1-[5-(2-(trans-3-(2-Pyridyl)acryloylamino)ethyl)-2-(2-methoxyethoxy)phenylsulfonyl]-3-isopropyl-thiourea] | 26% | 80%
3 | 188 °C | – | CNC(=S)NS(=O)(=O)c1cc(CCNC(=O)/C=C/c2ccccn2)ccc1OC [Example 18, 1-[5-(2-(trans-3-(2-Pyridyl)acryloylamino)ethyl)-2-methoxyphenylsulfonyl]-3-methyl-thiourea] | – | –
4 | 74 °C | – | CCOc1ccc(CCNC(=O)/C=C/c2cccs2)cc1S(=O)(=O)NC(=S)NC [Example 9, 1-[5-(2-(trans-3-(2-Thienyl)acryloylamino)ethyl)-2-ethoxyphenylsulfonyl]-3-methyl-thiourea] | – | –
5 | 152 °C | – | CNC(=S)NS(=O)(=O)c1cc(CCNC(=O)/C=C/c2cccs2)ccc1OCCOC [Example 6, 1-[5-(2-(trans-3-(2-Thienyl)acryloylamino)ethyl)-2-(2-methoxyethoxy)phenylsulfonyl]-3-methyl-thiourea] | – | –
6 | 96 °C | – | COc1ccc(CCNC(=O)/C=C/c2cccs2)cc1S(=O)(=O)NC(=S)NC(C)C [Example 5, 1-[5-(2-(trans-3-(2-Thienyl)acryloylamino)ethyl)-2-methoxyphenyisulfonyl]-3-isopropyl-thiourea] | – | –
7 | – | 8.1% | CNC(=O)NS(=O)(=O)c1cc(CCNC(=O)/C=C/c2cccs2)ccc1OCCOC [Example 7, 1-[5-(2-(trans-3-(2-Thienyl)acryloylamino)ethyl)-2-(2-methoxyethoxy)phenylsulfonyl]-3-methyl-urea] | 39% | 80%
8 | 161 to 163 °C | – | CNC(=S)NS(=O)(=O)c1cc(CCNC(=O)/C=C/c2cccs2)ccc1OCCOC(F)(F)F [Example 16, 1-[5-(2-(trans-3-(2-Thienyl)acryloylamino)ethyl)-2-(2-(trifluoromethoxy)ethoxy)phenylsulfonyl]-3-methyl-thiourea] | – | –

Further lines, the compound ahead of its results:

Row | Structure (SMILES) | melting point | Blockade hSUR1/hKiR6.2 (hSUR1/hKir6.2) | Relengthening of the APD90 shortened by hypoxia [1] | Fibrillation ratio (in %) [2]
9 | CCOCCOc1ccc(CCNC(=O)/C=C/c2cccs2)cc1S(=O)(=O)NC(=O)NC [Example 11, 1-[5-(2-(trans-3-(2-Thienyl)acryloylamino)ethyl)-2-(2-ethoxyethoxy)phenylsulfonyl]-3-methyl-urea] | 65 °C | – | – | –
10 | CNC(=S)NS(=O)(=O)c1cc(CCNC(=O)/C=C/c2cccs2)ccc1OCC1CCCO1 (stereo not drawn) [Example 14, 1-[5-(2-(trans-3-(2-Thienyl)acryloylamino)ethyl)-2-(tetrahydrofuran-2-ylmethoxy)phenylsulfonyl]-3-methyl-thiourea] | 78 °C | – | – | –
11 | CNC(=S)NS(=O)(=O)c1cc(CCNC(=O)/C=C/c2cccs2)ccc1OC [Example 1, 1-[5-(2-(trans-3-(2-Thienyl)acryloylamino)ethyl)-2-methoxyphenylsulfonyl]-3-methyl-thiourea] | – | 30.7% | 33% | –
12 | CNC(=S)NS(=O)(=O)c1cc(CCNC(=O)/C=C/c2cccs2)ccc1OCC1CCCCO1 (stereo not drawn) [Example 15, 1-[5-(2-(trans-3-(2-Thienyl)acryloylamino)ethyl)-2-(tetrahydropyran-2-ylmethoxy)phenylsulfonyl]-3-methyl-thiourea] | 80 °C | – | – | –
13 | CCOCCOc1ccc(CCNC(=O)/C=C/c2cccs2)cc1S(=O)(=O)NC(=S)NC [Example 10, 1-[5-(2-(trans-3-(2-Thienyl)acryloylamino)ethyl)-2-(2-ethoxyethoxy)phenylsulfonyl]-3-methyl-thiourea] | – | – | 50% | –
14 | CNC(=O)NS(=O)(=O)c1cc(CCNC(=O)/C=C/c2cccs2)ccc1OC [Example 3, 1-[5-(2-(trans-3-(2-Thienyl)acryloylamino)ethyl)-2-methoxyphenylsulfonyl]-3-methyl-urea] | – | 1.7% | – | 65%
15 | CNC(=S)NS(=O)(=O)c1cc(CCNC(=O)/C=C/c2cccs2)ccc1-c1ccco1 [Example 17, 1-[5-(2-(trans-3-(2-Thienyl)acryloylamino)ethyl)-2-(2-furyl)phenylsulfonyl]-3-methyl-thiourea] | 175 to 176 °C | – | – | –
